≈ marks a conversion by molar mass, not a printed value.
Assays:
A549 = assay: Cytotoxicity against human A549 cells incubated for 48 hrs by SRB assay; type: cell-based; conditions: A549, 48 h
[1] = system: Mycolicibacterium smegmatis; assay: Antimycobacterial activity against Mycobacterium smegmatis str. MC2 155 incubated for 30 hrs by turbidometric assay; type: functional; conditions: str. MC2 155, 30 h

## O=C(Cn1cc(-c2ccccc2)nn1)Nc1c(C(F)(F)F)n[nH]c1-c1ccccc1
A549
  IC50: 52.2 µg/mL (≈ 127 µM)
[1]
  MIC: 35.9 µg/mL (≈ 87.1 µM)

## O=C(Cn1cc(-c2ccc(OC(F)(F)F)cc2)nn1)Nc1c(C(F)(F)F)n[nH]c1-c1ccccc1
A549
  IC50: 45.3 µg/mL (≈ 91.2 µM)
[1]
  MIC: 35.4 µg/mL (≈ 71.3 µM)

## O=C(Cn1cc(-c2ccc(-c3ccccc3)cc2)nn1)Nc1c(C(F)(F)F)n[nH]c1-c1ccccc1
A549
  IC50: 57 µg/mL (≈ 117 µM)
[1]
  MIC: 31.8 µg/mL (≈ 65 µM)

## CC(C)(C)c1ccc(-c2cn(CC(=O)Nc3c(C(F)(F)F)n[nH]c3-c3ccccc3)nn2)cc1
A549
  IC50: 25.8 µg/mL (≈ 55.2 µM)
[1]
  MIC: > 100 µg/mL

## CCCCCc1ccc(-c2cn(CC(=O)Nc3c(C(F)(F)F)n[nH]c3-c3ccccc3)nn2)cc1
A549
  IC50: > 100 µg/mL
[1]
  MIC: 35.4 µg/mL (≈ 73.3 µM)

## COc1ccc(-c2cn(CC(=O)Nc3c(C(F)(F)F)n[nH]c3-c3ccccc3)nn2)c(C)c1
A549
  IC50: 54 µg/mL (≈ 118 µM)
[1]
  MIC: 85.6 µg/mL (≈ 188 µM)

## Cc1cccc(-c2cn(CC(=O)Nc3c(C(F)(F)F)n[nH]c3-c3ccccc3)nn2)c1
A549
  IC50: 60.6 µg/mL (≈ 142 µM)
[1]
  MIC: 29.9 µg/mL (≈ 70.2 µM)

## O=C(Cn1cc(-c2ccccc2C(F)(F)F)nn1)Nc1c(C(F)(F)F)n[nH]c1-c1ccccc1
A549
  IC50: 64.2 µg/mL (≈ 134 µM)
[1]
  MIC: 53 µg/mL (≈ 110 µM)

## CCOC(=O)c1cn(CC(=O)Nc2c(C(F)(F)F)n[nH]c2-c2ccccc2)nn1
A549
  IC50: > 100 µg/mL
[1]
  MIC: 27.7 µg/mL (≈ 67.9 µM)

## CCCCc1cn(CC(=O)Nc2c(C(F)(F)F)n[nH]c2-c2ccccc2)nn1
A549
  IC50: > 100 µg/mL
[1]
  MIC: 65.5 µg/mL (≈ 167 µM)

## O=C(Cn1cc(COc2cccc3c(C(F)(F)F)cc(=O)oc23)nn1)Nc1c(C(F)(F)F)n[nH]c1-c1ccccc1
A549
  IC50: > 100 µg/mL
[1]
  MIC: 53.7 µg/mL (≈ 92.8 µM)

## O=C(Cn1cc(CNc2cccc(C(F)(F)F)c2)nn1)Nc1c(C(F)(F)F)n[nH]c1-c1ccccc1
A549
  IC50: 25.3 µg/mL (≈ 49.7 µM)
[1]
  MIC: 99.6 µg/mL (≈ 196 µM)

## COc1cccc(NCc2cn(CC(=O)Nc3c(C(F)(F)F)n[nH]c3-c3ccccc3)nn2)c1
A549
  IC50: 38.3 µg/mL (≈ 81.3 µM)
[1]
  MIC: 53.9 µg/mL (≈ 114 µM)

## COc1ccc(NCc2cn(CC(=O)Nc3c(C(F)(F)F)n[nH]c3-c3ccccc3)nn2)cc1OC
A549
  IC50: > 100 µg/mL
[1]
  MIC: 58.3 µg/mL (≈ 116 µM)

## COc1cc(NCc2cn(CC(=O)Nc3c(C(F)(F)F)n[nH]c3-c3ccccc3)nn2)cc(OC)c1OC
A549
  IC50: > 100 µg/mL
[1]
  MIC: 78.3 µg/mL (≈ 147 µM)

## Cc1cccc(C)c1NCc1cn(CC(=O)Nc2c(C(F)(F)F)n[nH]c2-c2ccccc2)nn1
A549
  IC50: 52.9 µg/mL (≈ 113 µM)
[1]
  MIC: 64.1 µg/mL (≈ 136 µM)

## COc1ccc(C(=O)c2cn(CC(=O)Nc3c(C(F)(F)F)n[nH]c3-c3ccccc3)nn2)cc1
A549
  IC50: 80.7 µg/mL (≈ 172 µM)
[1]
  MIC: 15.3 µg/mL (≈ 32.6 µM)

## COc1ccc(C(=O)c2cn(CC(=O)Nc3c(C(F)(F)F)n[nH]c3-c3ccccc3)nn2)cc1OC
A549
  IC50: 26.8 µg/mL (≈ 53.6 µM)
[1]
  MIC: 65.7 µg/mL (≈ 131 µM)

## O=C(Cn1cc(C(=O)c2cn(-c3ccccc3)nc2-c2ccccc2)nn1)Nc1c(C(F)(F)F)n[nH]c1-c1ccccc1
A549
  IC50: 68 µg/mL (≈ 117 µM)
[1]
  MIC: 28.8 µg/mL (≈ 49.5 µM)

## O=C(Cn1cc(C(=O)c2cn(-c3ccccc3)nc2-c2ccc(Cl)cc2)nn1)Nc1c(C(F)(F)F)n[nH]c1-c1ccccc1
A549
  IC50: > 100 µg/mL
[1]
  MIC: > 100 µg/mL

## Cc1ccc(-c2nn(-c3ccccc3)cc2C(=O)c2cn(CC(=O)Nc3c(C(F)(F)F)n[nH]c3-c3ccccc3)nn2)cc1
A549
  IC50: > 100 µg/mL
[1]
  MIC: 94.5 µg/mL (≈ 158 µM)

## COc1ccc(-c2nn(-c3ccccc3)cc2C(=O)c2cn(CC(=O)Nc3c(C(F)(F)F)n[nH]c3-c3ccccc3)nn2)cc1
A549
  IC50: 59.6 µg/mL (≈ 97.3 µM)
[1]
  MIC: 25.3 µg/mL (≈ 41.2 µM)

## NNC(=O)c1cn(CC(=O)Nc2c(C(F)(F)F)n[nH]c2-c2ccccc2)nn1
A549
  IC50: 67.6 µg/mL (≈ 171 µM)
[1]
  MIC: 33.9 µg/mL (≈ 85.9 µM)

## O=C(Cn1cc(C(=O)N/N=C/c2ccc(C(F)(F)F)cc2)nn1)Nc1c(C(F)(F)F)n[nH]c1-c1ccccc1
A549
  IC50: > 100 µg/mL
[1]
  MIC: > 100 µg/mL

## O=C(Cn1cc(C(=O)N/N=C/c2ccccc2C(F)(F)F)nn1)Nc1c(C(F)(F)F)n[nH]c1-c1ccccc1
A549
  IC50: > 100 µg/mL
[1]
  MIC: 16.2 µg/mL (≈ 29.4 µM)

## O=C(Cn1cc(C(=O)N/N=C/c2cccc(Oc3ccccc3)c2)nn1)Nc1c(C(F)(F)F)n[nH]c1-c1ccccc1
A549
  IC50: > 100 µg/mL
[1]
  MIC: 16.6 µg/mL (≈ 28.9 µM)

## COc1ccc(/C=N/NC(=O)c2cn(CC(=O)Nc3c(C(F)(F)F)n[nH]c3-c3ccccc3)nn2)cc1
A549
  IC50: > 100 µg/mL
[1]
  MIC: 45.6 µg/mL (≈ 88.9 µM)

## COc1ccc(/C=N/NC(=O)c2cn(CC(=O)Nc3c(C(F)(F)F)n[nH]c3-c3ccccc3)nn2)cc1OC
A549
  IC50: > 100 µg/mL
[1]
  MIC: 41.3 µg/mL (≈ 76.1 µM)

## COc1cccc2c1C(=O)c1c(O)c3c(c(O)c1C2=O)C[C@@](O)(C(=O)CO)C[C@@H]3O[C@H]1C[C@H](N)[C@H](O)[C@H](C)O1 [DOXORUBICIN]
A549
  IC50: 8.5 µg/mL (≈ 15.6 µM)

## NNC(=O)c1ccncc1 [ISONIAZID]
[1]
  MIC: 12.1 µg/mL (≈ 88 µM)

## CO[C@H]1/C=C/O[C@@]2(C)Oc3c(C)c(O)c4c(O)c(c(/C=N/N5CCN(C)CC5)c(O)c4c3C2=O)NC(=O)/C(C)=C\C=C\[C@H](C)[C@H](O)[C@@H](C)[C@@H](O)[C@@H](C)[C@H](OC(C)=O)[C@@H]1C [RIFAMPIN]
[1]
  MIC: 2.15 µg/mL (≈ 2.61 µM)

From ChEMBL document CHEMBL3596091, “Synthesis and evaluation of novel fluorinated pyrazolo-1,2,3-triazole hybrids as antimycobacterial agents” (Bioorg Med Chem Lett, 2015)
